Columns and labels:
[1] = test system: Rat Liver Microsome; assay: Activity to Inhibit Hyperoxidation of Lipid of Rat Liver Microsome (thiobarbituric acid method); type: biochemical
Procedure: Activity to Inhibit Hyperoxidation of Lipid of Rat Liver Microsome
A rat liver microsome was prepared according to a conventional method, and suspended in 1.15% KCl to obtain a microsome suspension.
The above microsome suspension in an amount equivalent to 2 mg of a protein was added to a tris-HCl buffer (pH 7.4) to which NADPH, ADP and FeCl3 had been added such that the final concentrations were 0.2 mM of NADPH, 1 mM of ADP and 10 μM of FeCl3.
A dimethylformamide (DMF) solution of each of test compounds in an amount of 10 μl or DMF in an amount of 10 μl was added such that the total amount of each of the mixtures was 1 ml, and then, the mixtures were kept at 37° C. for 20 minutes. In addition, the test compounds were added in such amounts that their final concentrations became 10^-5 M.
Thereafter, according to a thiobarbituric acid method, the above mixtures were measured for an amount of peroxide lipid formed. The inhibiting activities of the test compounds were compared with that of the group containing the solvent (DMF) alone, and the results were expressed as an inhibition ratio (%).

[2] = Stability Test; type: physicochemical; details: room temperature, after 24 hours, tris-HCl buffer pH 9.0; read-out: residual content
Procedure: A tris-HCI buffer having pH of 9.0 was added to each of alcohol solutions of the compounds (Ia2), (Ia3), (IA2) and 2-O-dodecyl ascorbic acid, which was a position isomer of the compound (IA2), in such a manner that the amount of the buffer was 100 times as large as that of each alcohol solution.
The test compounds in the solutions which were allowed to stand at room temperature were quantitatively determined with time to measure their stability.

[3] = test system: Mouse; assay: Acute Toxicity Test on Mouse; type: in vivo, Male 3-ICR mice; details: intravenous
Procedure: Acute Toxicity Test on Mouse
Male 3-ICR mice (10 weeks of age) were used. The compounds (Ia2), (Ia3) and (IA2) were intravenously administered to the mice in such a manner that the doses of each of the compounds were 30 mg/kg and 100 mg/kg. For one week after the administration, symptoms were observed.

[4] = test system: CCl4 Liver Dysfunction; assay: Action on CCl4 Liver Dysfunction; type: in vivo, ICR male mice; details: oral
Procedure: Action on CCl4 Liver Dysfunction
Fourteen and seventeen ICR male mice were used as one group for each test. Each of the mice was hypodermically administered in its dorsal portion with 10 ml/kg of a solution of 10% CCl4 in olive oil to develop acute hepatitis, and the serum obtained by centrifugation of a blood sample taken from each mouse 48 hours after the administration was measured on GOT (glutamic-oxaloacetic transaminase) activity and GPT (glutamic-pyruvictransaminase) activity with an autoanalyzer (AU550, supplied by Olympus K.K.).
In addition, the test compound was suspended in physiological saline containing 1% olive oil and 1% Tween 80, and the resultant suspension was orally administered three times in total, immediately after the CCl4 administration and in the morning and evening on the day thereafter, such that the dose of each test compound was 100 mg/kg/one time administration.

[5] = test system: Ventricular Arrhythmia During Coronary Occlusion-Reperfusion in Rat Heart; assay: Activity to Inhibit Ventricular Arrhythmia During Coronary Occlusion-Reperfusion in Rat Heart; type: in vivo, male Wistar rats; details: for Total time of arrhythmia occurrence (second) (mean + S.E.): 10 minutes (600 seconds) observation
Procedure: Activity to Inhibit Ventricular Arrhythmia During Coronary Occlusion-Reperfusion in Rat Heart
Five to ten male Wistar rats (weight 230 to 460 g per rat) were used as one group for each of test compounds. Each of the rats was anesthetized with sodium pentobarbital, and electrocardiograms thereof were recorded with standard lead II.
The rats were subjected to thoracotomy under artificial respiration, and left coronary artery ramus anterior descendenses were ligated for 5 minutes and then perfused.
In addition, each of test compounds was suspended in a physiological saline containing 1% olive oil and 1% Tween 80, and the resultant suspensions were administered into femoral veins 2 minutes before the coronary occlusion, or orally administered 1 hour before the coronary occlusion, such that the amounts of said compounds were as predetermined.
When a left coronary artery ramus anterior descendence is occluded for 5 minutes and then reperfused, ventricular arrhythmia typified by ventricular tachycardia (VT) and ventricular fibrillation (VF) occurs.

[6] = test system: Ischemic Brain Model Mouse; assay: Action on Survival Rate of Ischemic Brain Model Mouse; type: in vivo, ICR male mice; details: oral, 100 mg/kg
Procedure: Action on Survival Rate of Ischemic Brain Model Mouse
Thirteen to fifty-six ICR male mice were used as one group for each of test compounds. Each of the mice was anesthetized by intraperitoneal administration of sodium pentobarbital, the bilateral carotid arteries were exposed, a thread was put around the arteries, and the skin was sutured with one end of the thread outside the body.
Three days after the suture of the skin, the bilateral carotid arteries were ligated for 3 minutes, and then reperfused to obtain ischemic brain model mice. And, a survival rate in each group 24 hours after the ligation-reperfusion of bilateral carotid arteries was determined.
In addition, each of the test compounds was suspended in a physiological saline containing 1% olive oil and 1% Tween 80, and the suspension was orally administered one hour before the ligation of the bilateral carotid arteries such that the amount of each test compound was 100 mg/kg.

[7] = test system: Ischemic Acute Renal Insufficiency; assay: Action on Ischemic Acute Renal Insufficiency; type: in vivo, male Wistar rats; details: intravenous, 72 hours after reperfusion
Procedure: Action on Ischemic Acute Renal Insufficiency
Four male Wistar rats (weight: about 200 g per rat) were used as one group for each test. Each of the rats was anesthetized with sodium pentobarbital, the right kidney was extirpated, and immediately thereafter, 100 IU/kg of heparin was intravenously administered to its tail. Eight minutes after the administration, the left renal artery was ligated with a suture, and 60 minutes after the ligation, and the renal artery was reperfused by unligating the suture to develop ischemic acute renal insufficiency in each of the rats.
Immediately before the administration of sodium pentobarbital and 72 hours after the reperfusion, blood samples were taken from the tail artery of each rat, and the serums obtained by centrifugation of the sample bloods were respectively measured for a blood urea nitrogen (BUN) amount and a creatinine amount, indices for renal insufficiency, with an autoanalyzer (AU550, supplied by Olympus K.K.).
In addition, the test compound was suspended in a physiological saline containing 1% olive oil and 1% Tween 80, and the resultant suspension was intravenously administered to the tail of each rat 10 minutes before the administration of sodium pentobarbital or 10 minutes before the reperfusion such that the dose of the test compound was 10 mg/kg or 30 mg/kg.

[8] = 10^-5 M, pH 7.4, 37° C., 20 minutes, versus solvent (DMF) alone; 10 µM
[9] = 10^-5 M, pH 7.4, 37° C., 20 minutes, versus solvent (DMF) alone, 10 µM
[10] = 100 mg/kg/one time, three times, serum 48 hours after CCl4

With `CCCCCCC(=O)COC1=C(O)C(=O)O[C@@H]1[C@@H](O)CO` [(a), reference compound] the “Lipid hyperoxidation inhibition ratio (%)” value [1, 8] was 27%.

In the case of `CCCCCCCCCCCCCCCCC(=O)COC1=C(O)C(=O)O[C@@H]1[C@@H](O)CO` [(b), reference compound], the “Lipid hyperoxidation inhibition ratio (%)” value [1, 8] was 43%.

For `CCCCCCCCOC1=C(O)C(=O)O[C@@H]1[C@@H](O)CO` [(c), reference compound], the “Lipid hyperoxidation inhibition ratio (%)” value [1, 8] was 40%.

In the case of `CCCCCCCCCCCCCCCCCCOC1=C(O)C(=O)O[C@@H]1[C@@H](O)CO` [(d), reference compound], the “Lipid hyperoxidation inhibition ratio (%)” value [1, 8] was 45%.

In the case of `CCCCCCCCCCOC(=O)COC1=C(O)C(=O)O[C@@H]1[C@@H](O)CO` [Compound (IA5)], the “Lipid hyperoxidation inhibition ratio (%)” value [1, 9] was 72%.

For `CCCCCCCCCCCCCCCCCCOC(=O)COC1=C(O)C(=O)O[C@@H]1[C@@H](O)CO` [Compound (IA6)], the “Lipid hyperoxidation inhibition ratio (%)” value [1, 9] was 73%.

For `CCCCCCCCCCCCC(=O)COC1=C(O)C(=O)O[C@@H]1[C@@H](O)CO` [Compound (Ia3), 3-O-dodecylcarbonylmethyl ascorbic acid], the remaining at 24 h [2] was no less than 80%, the “death during observation for one week” value ([3]; 30 mg/kg) was “no death was found” and the “death during observation for one week” value ([3]; 100 mg/kg) was “no death was found”. For the same compound, the “GOT activity value” ([4]; 100 mg/kg) was “significantly reduced”, the “GPT activity value” ([4]; 100 mg/kg) was “significantly reduced” and the “GOT activity (mean ± S.E)” value [4, 10] was 445.0 ± 69.0 Unit/1. The “GPT activity (mean ± S.E)” value [4, 10] was 1,406.4 ± 185.2 Unit/1, the “Lipid hyperoxidation inhibition ratio (%)” value [1, 9] was 85% and the “Lipid hyperoxidation inhibition ratio (%)” value ([1]; 10^-5 M, pH 7.4, 37° C., 20 minutes, versus solvent (DMF) alone, 10 µM, listed as Compound (IA3)) was 81%. The “Total time of arrhythmia occurrence (second) (mean + S.E.)” value (“Total time of arrhythmia occurrence” below) ([5]; i.v., 0.3 mg/kg, 2 minutes before coronary occlusion) was 471.0 ± 73.6 s, the “Total time of arrhythmia occurrence” value ([5]; i.v., 1 mg/kg, 2 minutes before coronary occlusion) was 216.1 ± 59.6 s and the “Total time of arrhythmia occurrence” value ([5]; i.v., 3 mg/kg, 2 minutes before coronary occlusion) was 273.5 ± 93.8 s. The “Total time of arrhythmia occurrence” value ([5]; i.v., 10 mg/kg, 2 minutes before coronary occlusion) was 203.8 ± 91.0 s, the “Total time of arrhythmia occurrence” value ([5]; i.v., 30 mg/kg, 2 minutes before coronary occlusion) was 150.5 ± 79.8 s and the “inhibition of occurrence of arrhythmia” value ([5]; intravenously, not less than 1 mg/kg) was “same significant inhibition”. The “inhibition of occurrence of arrhythmia” value ([5]; orally, not less than 10 mg/kg) was “same significant inhibition”, the “Total time of arrhythmia occurrence” value ([5]; p.o., 10 mg/kg, 1 hour before coronary occlusion) was 378.2 ± 61.4 s and the “Total time of arrhythmia occurrence” value ([5]; p.o., 30 mg/kg, 1 hour before coronary occlusion) was 313.3 ± 81.7 s. For the same compound, the “Total time of arrhythmia occurrence” value ([5]; p.o., 100 mg/kg, 1 hour before coronary occlusion) was 85.4 ± 28.9 s, the “Total time of arrhythmia occurrence” value ([5]; p.o., 300 mg/kg, 1 hour before coronary occlusion) was 123.6 ± 43.7 s and the “Survival rate (%)” value ([6]; one hour before ligation, 24 hours after ligation-reperfusion of bilateral carotid arteries) was 80.0%. For the same compound, the “survival rate versus vehicle group” value ([6]; 24 hours after ligation-reperfusion) was “significantly higher”, the “BUN amount (mean ± S.E.)” value ([7]; 10 mg/kg) was 33.8 ± 6.1 mg/dL and the “Creatinine amount (mean ± S.E.)” value ([7]; 10 mg/kg) was 0.93 ± 0.05 mg/dL. The “BUN amount (mean ± S.E.)” value ([7]; 30 mg/kg) was 34.1 ± 8.9 mg/dL, the “Creatinine amount (mean ± S.E.)” value ([7]; 30 mg/kg) was 1.04 ± 0.12 mg/dL and the “BUN amount versus vehicle group” value ([7]; 10 or 30 mg/kg) was “significantly smaller”. For the same compound, the “creatinine amount versus vehicle group” value ([7]; 10 or 30 mg/kg) was “significantly smaller”.

In the case of `CCCCCCCCCCCCCCC(=O)COC1=C(O)C(=O)OC1C(O)CO` (centres unmarked) [Compound (Ia4)], the “Lipid hyperoxidation inhibition ratio (%)” value [1, 9] was 65%.
